Assay results taken from patent US11279931B2, “Therapeutic agent for a lung disease and/or method for screening for the same” (Chugai Seiyaku Kabushiki Kaisha, priority 2015, dated 2022).

Experiments:
Assay type in all cases: cell-based, C57BL/6 mice
[1] = test system: IL-6 mRNA; test: IL-6 mRNA expression by qPCR in LPS-stimulated peritoneal macrophages; conditions: test agent 20 μM, LPS (1 g/mL), vs absence of CPZ (FIG. 10)
Description: (§1) Peritoneal macrophages from C57BL/6 mice (aged 6 to 8 weeks) were stimulated with LPS ([…]) in the presence or absence of a test agent (20 μM). The relative expression levels of mRNAs of Arid5A, IL-6, and TNF-α were determined in the stimulated peritoneal macrophages by quantitative PCR (qPCR). The expression level of Arid5A mRNA was determined 2 hours after LPS stimulation. The expression levels of IL-6 mRNA and TNF-α mRNA were determined 2 hours, 6 hours, 12 hours, and 24 hours after LPS stimulation. FIGS. 9 to 11 show the results when chlorpromazine (CPZ) was used as a test agent.

[2] = test system: Arid5A mRNA; test: Arid5A mRNA expression by qPCR in LPS-stimulated peritoneal macrophages; conditions: test agent 20 μM, LPS (1 g/mL), 2 hours after LPS stimulation, vs absence of CPZ (FIG. 9)
Description: as §1

[3] = test system: TNF-α mRNA; test: TNF-α mRNA expression by qPCR in LPS-stimulated peritoneal macrophages; conditions: test agent 20 μM, LPS (1 g/mL), determined 2, 6, 12 and 24 hours after LPS stimulation (FIG. 11)
Description: as §1

CN(C)CCCN1c2ccccc2Sc2ccc(Cl)cc21 [CPZ, chlorpromazine]
expression of IL-6 mRNA ([1]; 2 hours after LPS stimulation): markedly suppressed | expression of IL-6 mRNA ([1]; 6 hours after LPS stimulation): markedly suppressed | expression of Arid5A mRNA [2]: markedly suppressed | expression of TNF-α mRNA [3]: no effect
